Laboratory results: ChEMBL document CHEMBL4507268 (2021)

Experiments:
[1] = system: SK-BR-3; experiment: Proliferation assay: SK-BR-3 (breast cancer); assay type: functional, cell-based; conditions: Homo sapiens
[2] = target: T1, Tyrosine-protein kinase TXK (Homo sapiens) (UniProt P42681); conditions: Compound concentration 1000.0 nM
T1 sequence (whole entry): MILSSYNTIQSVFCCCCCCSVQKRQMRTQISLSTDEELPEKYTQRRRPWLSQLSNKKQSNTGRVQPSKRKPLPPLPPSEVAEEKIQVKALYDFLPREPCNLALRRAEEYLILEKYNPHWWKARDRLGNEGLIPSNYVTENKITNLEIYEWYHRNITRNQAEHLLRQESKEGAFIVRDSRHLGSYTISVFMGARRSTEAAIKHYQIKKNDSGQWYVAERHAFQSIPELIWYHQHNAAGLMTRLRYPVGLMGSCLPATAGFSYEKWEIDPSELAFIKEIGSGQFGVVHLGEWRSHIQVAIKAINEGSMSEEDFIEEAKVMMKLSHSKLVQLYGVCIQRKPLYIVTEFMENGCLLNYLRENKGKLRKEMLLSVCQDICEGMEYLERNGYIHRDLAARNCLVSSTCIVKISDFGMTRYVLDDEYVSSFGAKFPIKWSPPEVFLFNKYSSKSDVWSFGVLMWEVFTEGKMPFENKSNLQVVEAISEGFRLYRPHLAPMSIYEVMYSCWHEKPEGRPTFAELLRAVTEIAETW

[3] = target: T2, Cyclin-dependent kinase-like 2 (Homo sapiens) (UniProt Q92772); conditions: Compound concentration 1000.0 nM
T2 sequence (whole entry): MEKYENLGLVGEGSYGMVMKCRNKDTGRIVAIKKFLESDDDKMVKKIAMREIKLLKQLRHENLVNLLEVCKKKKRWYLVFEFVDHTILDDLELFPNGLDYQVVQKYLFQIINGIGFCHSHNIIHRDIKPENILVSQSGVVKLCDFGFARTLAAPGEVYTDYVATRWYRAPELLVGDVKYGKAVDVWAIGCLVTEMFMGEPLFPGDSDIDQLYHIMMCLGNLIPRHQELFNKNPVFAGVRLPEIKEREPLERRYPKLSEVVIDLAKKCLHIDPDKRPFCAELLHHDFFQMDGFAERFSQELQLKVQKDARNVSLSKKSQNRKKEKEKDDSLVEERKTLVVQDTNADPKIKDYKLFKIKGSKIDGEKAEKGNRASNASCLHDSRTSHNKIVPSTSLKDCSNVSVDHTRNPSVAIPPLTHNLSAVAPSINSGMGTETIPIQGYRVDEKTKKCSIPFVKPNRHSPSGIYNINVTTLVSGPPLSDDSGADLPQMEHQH

[4] = target: T3, cGMP-dependent protein kinase 1 (Homo sapiens) (UniProt Q13976); conditions: Compound concentration 1000.0 nM
T3 sequence (whole entry): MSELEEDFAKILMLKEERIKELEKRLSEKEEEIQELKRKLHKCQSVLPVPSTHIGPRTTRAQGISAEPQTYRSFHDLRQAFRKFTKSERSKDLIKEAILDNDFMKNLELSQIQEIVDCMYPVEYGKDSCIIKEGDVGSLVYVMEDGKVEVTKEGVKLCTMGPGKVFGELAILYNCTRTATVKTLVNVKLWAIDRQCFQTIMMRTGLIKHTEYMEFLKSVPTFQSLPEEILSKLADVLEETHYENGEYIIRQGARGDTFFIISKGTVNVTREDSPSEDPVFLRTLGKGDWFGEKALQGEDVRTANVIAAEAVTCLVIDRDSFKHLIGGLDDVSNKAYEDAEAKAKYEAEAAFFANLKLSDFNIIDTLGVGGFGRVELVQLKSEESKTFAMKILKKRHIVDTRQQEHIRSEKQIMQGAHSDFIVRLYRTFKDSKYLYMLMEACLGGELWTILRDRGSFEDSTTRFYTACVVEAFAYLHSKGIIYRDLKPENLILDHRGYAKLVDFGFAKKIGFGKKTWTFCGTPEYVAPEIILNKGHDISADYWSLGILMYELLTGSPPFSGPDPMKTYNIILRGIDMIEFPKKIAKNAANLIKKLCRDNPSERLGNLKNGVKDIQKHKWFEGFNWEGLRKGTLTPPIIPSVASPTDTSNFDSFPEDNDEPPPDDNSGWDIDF

[5] = target: T4, Serine/threonine-protein kinase TAO2 (Homo sapiens) (UniProt Q9UL54); conditions: Compound concentration 1000.0 nM
T4 sequence (whole entry): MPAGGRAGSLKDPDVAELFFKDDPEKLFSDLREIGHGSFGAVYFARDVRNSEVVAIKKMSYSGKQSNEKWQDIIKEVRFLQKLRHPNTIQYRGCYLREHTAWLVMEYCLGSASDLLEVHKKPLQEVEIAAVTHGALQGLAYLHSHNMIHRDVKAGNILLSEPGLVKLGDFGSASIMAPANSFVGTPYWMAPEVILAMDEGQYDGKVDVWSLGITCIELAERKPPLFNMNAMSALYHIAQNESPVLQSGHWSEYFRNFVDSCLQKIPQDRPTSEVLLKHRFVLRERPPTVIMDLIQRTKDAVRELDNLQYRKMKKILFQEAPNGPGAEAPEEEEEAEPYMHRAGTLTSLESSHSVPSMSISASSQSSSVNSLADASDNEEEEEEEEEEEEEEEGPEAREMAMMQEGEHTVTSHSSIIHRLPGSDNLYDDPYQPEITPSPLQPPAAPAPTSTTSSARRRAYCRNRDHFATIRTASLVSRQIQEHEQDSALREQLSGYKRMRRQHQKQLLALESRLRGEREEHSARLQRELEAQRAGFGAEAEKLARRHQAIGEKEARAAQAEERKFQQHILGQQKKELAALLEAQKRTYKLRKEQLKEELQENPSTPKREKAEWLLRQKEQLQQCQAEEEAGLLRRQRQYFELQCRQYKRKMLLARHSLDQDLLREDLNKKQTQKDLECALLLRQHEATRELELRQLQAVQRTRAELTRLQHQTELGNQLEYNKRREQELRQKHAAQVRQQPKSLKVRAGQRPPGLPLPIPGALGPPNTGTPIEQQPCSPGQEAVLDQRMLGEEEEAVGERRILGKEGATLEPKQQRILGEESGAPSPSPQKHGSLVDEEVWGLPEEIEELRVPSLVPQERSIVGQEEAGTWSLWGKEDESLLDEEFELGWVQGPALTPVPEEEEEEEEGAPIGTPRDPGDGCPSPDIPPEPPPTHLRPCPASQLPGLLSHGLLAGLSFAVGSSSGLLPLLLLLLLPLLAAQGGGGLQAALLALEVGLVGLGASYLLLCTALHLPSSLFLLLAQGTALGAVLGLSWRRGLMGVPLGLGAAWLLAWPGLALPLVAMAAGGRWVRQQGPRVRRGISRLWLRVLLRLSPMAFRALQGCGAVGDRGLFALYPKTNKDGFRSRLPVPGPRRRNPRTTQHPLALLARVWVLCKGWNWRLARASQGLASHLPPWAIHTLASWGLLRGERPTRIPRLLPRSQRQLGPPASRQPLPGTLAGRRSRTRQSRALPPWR

[6] = target: Serine/threonine-protein kinase 32A (Homo sapiens) (UniProt Q8WU08); conditions: Compound concentration 1000.0 nM
Chain of Serine/threonine-protein kinase 32A (Homo sapiens) (Q8WU08 whole entry): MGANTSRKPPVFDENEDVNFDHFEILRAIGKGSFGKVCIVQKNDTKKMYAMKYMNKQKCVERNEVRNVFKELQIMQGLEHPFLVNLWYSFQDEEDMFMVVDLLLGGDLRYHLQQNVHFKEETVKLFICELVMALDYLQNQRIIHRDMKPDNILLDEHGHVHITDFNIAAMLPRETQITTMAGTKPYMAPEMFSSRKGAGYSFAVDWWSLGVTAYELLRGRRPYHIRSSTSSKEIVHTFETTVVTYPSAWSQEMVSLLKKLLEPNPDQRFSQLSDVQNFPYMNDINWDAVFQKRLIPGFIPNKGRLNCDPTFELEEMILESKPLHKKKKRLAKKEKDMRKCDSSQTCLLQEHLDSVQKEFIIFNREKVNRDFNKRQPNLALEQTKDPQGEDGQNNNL

Cc1nc(C2CCN(C(=O)c3ccc(OC(F)(F)F)cc3N)CC2)c2ncc(N3CCN(C)CC3)cc2n1 [BAY-693]
IC50 [1]: 22.4 µM (not active) | residual activity [2]: 100% | residual activity [3]: 100% | residual activity [4]: 100% | residual activity [5]: 100% | residual activity [6]: 86%

CN1CCN(c2cnc3c(C4CCN(C(=O)c5ccc(OC(F)(F)F)cc5N)CC4)ncnc3c2)CC1 [BAY-885]
IC50 [1]: > 30 µM (not active) | residual activity [2]: 88% | residual activity [3]: 100% | residual activity [4]: 83% | residual activity [5]: 100% | residual activity [6]: 94%
